Test results reported in patent US20150224094A1, “ADMINISTRATION OF ACETYLCHOLINESTERASE INHIBITORS TO MITIGATE NEUROTOXIN-INDUCED PARALYSIS AND RESIDUAL NEUROMUSCULAR BLOCKADE” (priority 2012, published 2015).
Values joined by “and” are separate entries in the source; they are usually repeats but may differ in a detail not shown here. Equal values may be shown once. “Also recorded” adds a separate entry of the source.

What was measured:
[1] = Intra-nasal administration of glycopyrrolate and neostigmine, tolerability in a healthy volunteer
Description: In this experiment, the effect of intra-nasal administration of an mAChR inhibitor (glycopyrrolate) was determined using a healthy volunteer. 5 cc of glycopyrrolate (0.2 mg/mL) in sterile water was instilled in one nostril using an LMA sponge atomizer. […] 5 cc of 0.2 mg/mL glycopyrrolate mixed in DMSO was instilled in the other nostril.

[2] = system: mivacurium-induced neuromuscular blockade; test: Reversal of experimental mivacurium paralysis in a human by intranasal neostigmine aerosol
Description: Intravenous mivacurium is administered to a subject at concentrations of 5-200 mcg/kg/min to induce a safe, stable, low level neuromuscular block for a medical procedure. After completion of the procedure a total of 4 to 30 mg of neostigmine in divided doses—each dose separated by 15 minutes ([…] a 5% or a 6% solution) is administered intra-nasally and the regression of the block is followed quantitatively using acceleromyography or clinical measures such as the improvement in muscle strength as measured by thumb adduction, handgrip strength, teeth clenching, head raising and/or swallowing.
Neuromuscular block was quantified by using the train-of-four (TOF) ratio at the left adductor pollicis (AP) muscle measured by acceleromyography and as described previously. When the subject had significant oropharyngeal weakness and met electrophysiological criteria for Level 3 block a single dose of […] IV glycopyrrolate was administered to prevent bradycardia. Five minutes later 6% neostigmine dissolved in sterile water was administered using a primed atomizer (LMA MAD Nasal Device, LMA Corporation North America, San Diego, Calif.). A total dose of 27.6 mg, 0.37 mg/kg with half the volume insufflated in each nostril was given and the subject was left undisturbed for a total period of 10 min (Shaded area, FIG. 2) except for acceleromyographic recording. After the final set of measurements, the mivacurium infusion was terminated and neuromuscular function was allowed to return spontaneously. Emergency equipment and drugs including IV neostigmine and edrophonium (for reversal of mivacurium block) and glycopyrrolate and atropine (for early treatment of neostigmine toxicity) were at the bedside at all times.
Clinical measures of muscle function emphasized those that would be seen in the setting of neurotoxic envenomation that could be readily measured in out-of-hospital settings. The clinical assessments of muscle function were as follows: visual acuity, ease of swallowing, ability to protrude the tongue, diction, and ability to raise the head completely off the bed for more than 5 sec (neck flexion) with a postal scale (WeighMax, Industrial City, Calif., USA) placed under the subjects head to confirm complete elevation and peak respiratory flow measured using a Tru-Zone Peak Flow Meter (Monaghan, Plattsburg, N.Y.). […] The subject was blinded to all clinical and acceleromyographic data as well as to the mivacurium infusion rate and the levels of neuromuscular blockade.
The mivacurium infusion was maintained with unchanged infusion rate, enabling the investigators to determine the characteristics of neostigmine effect. Analysis of TOF ratios were made using TOFMON software (Schering-Plough Corporation, Kenilworth, N.J.) and considered stable if the values obtained 10 min apart differed less than 5% and accounting for repeated measures. Student's t-test results were calculated and reported as average values, standard deviation (SD), and 95% confidence intervals (95% CI).

[3] = system: krait bite (Bungarus sp.); test: Case report: intranasal neostigmine aerosol for residual weakness after suspected krait bite; assay type: in vivo, human; settings: single dose 0.5 cc aqueous 5% neostigmine intranasal aerosol
From the text: A healthy person was sleeping on a mud platform in their village and was awakened by a snake biting their left forearm. Within minutes, they developed headache and throat discomfort. They were transported by their family from the local clinic to the Emergency Department, conscious, but with progressive weakness. On physical examination, they had complete loss of gag reflex and rapidly worsening shortness of breath. There was no fang mark, ecchymosis or local swelling, and there were no other signs of coagulopathy such as bleeding gums or hematuria. They were unable to open their eyes and became unresponsive as emergent intubation was being performed without sedation. Polyvalent anti-snake venom (ASV) was administered concurrently. Based on the pattern of symptoms, lack of coagulopathy, normal renal function and normal bleeding and clotting times as well as lack of physical evidence of snakebite, krait bite (Bungarus sp.) was suspected. Twenty-four hours after ASV therapy and continuous mechanical ventilation, they were awake and alert, but with residual weakness, including profound ptosis, bilateral 6th nerve palsies and inability to lift their neck. […] Intranasal neostigmine was administered every four hours thereafter with IV atropine as prophylaxis against cholinergic toxicity. […]

[4] = system: myasthenic patients; settings: cited from earlier work
[5] = system: Naja naja (Indian cobra) venom; test: Intranasal neostigmine in experimental Naja naja envenomation in mice; assay type: in vivo
Description: After pilot studies to assess the potency of reconstituted N. naja venom, 20 mice (21-28 g) were pseudo-randomized to receive IP injections of N. naja venom (approximately 2.5×LD50 for mice, Total N=20).
After 10 minutes, 15 animals received 5 microliters of 0.5 mg/mL neostigmine by nasal administration. Animals were observed continuously for 12 hours and assessed for signs of toxicity including respiratory distress, loss of spontaneous locomotor activity with the endpoint being death. Surviving animals were euthanized after 12 hours. Comparison of time to euthanasia across groups was performed and represented in Kaplan-Meier curves
Swiss albino mice were envenomed with cobra toxin (Naja naja) by intraperitoneal injection at doses >2.5×the LD50 and that killed 100% of untreated mice “LD100”. Intranasal neostigmine was given 10 minutes after envenomation to determine if this intervention could delay or treat the envenomation. 10/15 mice recovered completely and were still behaving normally >12 hours after envenoming. 5/15 mice in the treatment group died compared to 5/5 (100%) of the envenomation group. Mice were treated only once, with no attempt to re-treat with intranasal neostigmine.

[6] = 3 cc of 1 mg/mL neostigmine into one nostril, after 2nd dose of glycopyrrolate
[7] = intranasal neostigmine, constant mivacurium infusion

## C[N+]1(C)CCC(OC(=O)C(O)(c2ccccc2)C2CCCC2)C1 (stereo not shown) [glycopyrrolate]
[1]; 5 cc glycopyrrolate 0.2 mg/mL in sterile water, one nostril, LMA sponge atomizer
  effect on heart rate: no effect
[1]; 5 cc of 0.2 mg/mL glycopyrrolate mixed in DMSO, other nostril
  effect on heart rate: no notable effect
[1]; intranasal glycopyrrolate, noted prior to neostigmine
  effect on nasal membranes: mild drying
[2]; IV glycopyrrolate
  reversal of neostigmine-associated bradycardia: easily reversed

## CN(C)C(=O)Oc1cccc([N+](C)(C)C)c1 [neostigmine]
[1]; [6]
  effect on heart rate: no effect
  salivation: no increase
[2]; 6% neostigmine by atomizer
  local tolerability of intranasal spray: no stinging sensation or irritation
[2]; after intranasal 6% neostigmine 27.6 mg (0.37 mg/kg), constant mivacurium infusion 2.5 mcg/kg/min, pre-neostigmine 0.56
  Normalized TOF ratios (mean ± SD), adductor pollicis: 0.64±0.03
[2]; after intranasal neostigmine, 135 min
  Peak flow of baseline by the termination of the mivacurium infusion: 95%
[2]; after intranasal neostigmine, constant mivacurium infusion
  peak improvement adductor pollicis TOF ratio: 0.70
[2]; after receiving intranasal neostigmine
  time to feeling of facial and lingual muscles rearranging and tightening: ≤ 5 min
[2]; first test of neck flexion following neostigmine administration
  time to full recovery of neck flexion: 5 min
[2]; [7]
  clinically important muscular deficits / neuromuscular blockade: quickly relieved all clinically important muscular deficits; also recorded: antagonized the neuromuscular blockade
  time to full recovery of ability to swallow after neostigmine administration: ≤ 10 min
[2]; just prior to stopping the mivacurium infusion and after
  bradycardia and concurrent symptoms: asymptomatic bradycardia
[2]; response to intranasal neostigmine, 72% under stable blockade
  Peak Flow, average after neostigmine, of baseline: 91%
[2]; response to intranasal neostigmine, >20/200 under stable blockade
  Visual Acuity: Steady improvement and 20/20
[2]; response to intranasal neostigmine, Difficult under stable blockade
  Ease of Swallowing: Easy
[2]; response to intranasal neostigmine, Moderately Difficult under stable blockade
  Tongue Protrusion: Easy
[2]; response to intranasal neostigmine, Poor under stable blockade
  Diction: Improved
[2]; response to intranasal neostigmine, Present under stable blockade
  Jaw Ptosis: None
[2]; response to intranasal neostigmine, Unable under stable blockade
  Neck Flexion (Head Raise >5 s): Easy
[2]; while the mivacurium infusion was running
  signs or symptoms of muscarinic-mediated toxicity: no signs or symptoms
[3]
  6th nerve palsies: almost complete recovery
[3]; 24 h after ASV
  time to complete resolution of ptosis: ≤ 30 min
[4]; 6% neostigmine methylsulfate intranasal, doses spaced by 15 minutes, alternating nostrils
  clinical effect in myasthenic patients: salutary effects usually after the first dose
[4]; intranasal neostigmine at 15 minute intervals
  puffs tolerated without ill effect: up to 5 puffs
[5]; 5 uL of 0.5 mg/mL IN neostigmine, 2.5× the 100% lethal dose (LD100) of Naja naja venom
  mice whose lives were prolonged or saved: 5/5
[5]; 5 uL of 0.5 mg/mL IN neostigmine, of Naja naja
  effect on survival time: trended toward prolonging the lives
[5]; IN neostigmine N=15, controls 193 minutes
  time to death or euthanasia: 553 min
[5]; IN neostigmine after N. naja venom
  condition of surviving animals: completely normal by 6 hours
[5]; IN neostigmine, 5/5 died in envenomation group
  mice that died in the treatment group: 5/15
[5]; single dose 5 uL of 0.5 mg/mL IN neostigmine 10 min after IP N. naja venom (approx. 2.5×LD50, 100% lethal in controls), 12 h observation
  animals surviving / recovered of treated: 10 of 15 and 10/15
[5]; single dose IN neostigmine 10 min after IP N. naja venom, N=15
  survival: 67%
